Assay results reported in ChEMBL document CHEMBL1759996, “Design and synthesis of pyridin-2-yloxymethylpiperidin-1-ylbutyl amide CCR5 antagonists that are potent inhibitors of M-tropic (R5) HIV-1 replication” (Bioorg Med Chem Lett, 2011).

Experiments:
[1] = system: Human immunodeficiency virus 1; assay: Antiviral activity against Human immunodeficiency virus 1 BAL infected in human PBMC assessed as inhibition of viral replication by p24 antigen specific ELISA; format: functional, organism-based
[2] = Cytotoxicity against human PBMC; format: cell-based
[3] = target: C-C chemokine receptor type 5 (Homo sapiens, UniProt P51681); assay: Displacement of […] from CCR5 expressed in HEK293F cells; format: cell-based
Sequence of C-C chemokine receptor type 5 (P51681 whole entry): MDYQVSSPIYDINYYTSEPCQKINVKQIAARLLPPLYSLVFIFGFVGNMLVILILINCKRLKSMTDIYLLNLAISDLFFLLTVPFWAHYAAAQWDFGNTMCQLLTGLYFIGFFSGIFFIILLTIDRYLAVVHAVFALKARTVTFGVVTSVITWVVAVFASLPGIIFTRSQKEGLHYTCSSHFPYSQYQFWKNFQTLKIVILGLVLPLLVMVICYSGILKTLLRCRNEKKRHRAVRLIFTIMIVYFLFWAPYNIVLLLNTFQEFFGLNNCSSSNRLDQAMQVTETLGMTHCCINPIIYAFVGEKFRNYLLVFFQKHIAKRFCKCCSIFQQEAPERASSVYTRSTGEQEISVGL

[4] = Clearance in dog at 5 umol/kg, iv; format: ADME, organism-based, Canis lupus familiaris; details: in vivo
[5] = Half life in dog at 5 umol/kg, iv; format: ADME, organism-based, Canis lupus familiaris; details: in vivo
[6] = Half life in rat at 10 umol/kg, iv; format: ADME, organism-based; details: in vivo
[7] = Volume of distribution at steady state in rat at 10 umol/kg, iv; format: ADME, organism-based; details: in vivo, read-out: Vdss
[8] = Clearance in rat at 10 umol/kg, iv; format: ADME, organism-based; details: in vivo
[9] = Cmax in rat; format: ADME, organism-based; details: in vivo
[10] = Cmax in dog; format: ADME, organism-based, Canis lupus familiaris; details: in vivo
[11] = Volume of distribution at steady state in dog at 5 umol/kg, iv; format: ADME, organism-based, Canis lupus familiaris; details: in vivo, read-out: Vdss
[12] = AUC (0 to infinity) in rat; format: ADME, organism-based; set-up: time infinity; details: plasma
[13] = Oral bioavailability in dog at 12.5 umol/kg; format: ADME, organism-based, Canis lupus familiaris; details: in vivo
[14] = AUC (0 to infinity) in dog; format: ADME, organism-based, Canis lupus familiaris; set-up: time infinity; details: plasma
[15] = Oral bioavailability in rat at 100 umol/kg; format: ADME, organism-based; details: in vivo

| IC50 [1] | IC50 [3] | SMILES | CC50 [2] | further results |
| --- | --- | --- | --- | --- |
| > 39200 nM | – | CCO/N=C(/c1ccc(Br)cc1)C1CCN(CCNC(=O)c2c(C)cc[n+]([O-])c2C)CC1 | 196000 nM | – |
| > 32800 nM | – | CCO/N=C(/c1ccc(Br)cc1)C1CCN(C(CC)CCNC(=O)c2c(C)cc[n+]([O-])c2C)CC1 (configuration not stated) | > 178000 nM | – |
| > 6720 nM | 50 nM | Cc1ccnc(OC(c2ccc(C(F)(F)F)cc2)C2CCN(C(C)CCNC(=O)c3c(Cl)cncc3Cl)CC2)c1 (mixture of isomers) | 33600 nM | – |
| 2 nM | 30 nM | CC(CCNC(=O)c1c(Cl)cncc1Cl)N1CCC(C(Oc2cccc(Cl)n2)c2ccc(OC(F)(F)F)cc2)CC1 (mixture of isomers) | 6000 nM | – |
| > 6700 nM | 130 nM | CCO/N=C(/c1ccc(Br)cc1)C1CCN(C(C)CCNC(=O)c2c(Cl)cncc2Cl)CC1 (configuration not stated) | 33800 nM | – |
| 30 nM | – | CC(CCNC(=O)c1c(Cl)cncc1Cl)N1CCC(C(Oc2cccc(C(F)(F)F)c2)c2ccc(C(F)(F)F)cc2)CC1 (mixture of isomers) | 7000 nM | – |
| 170 nM | 40 nM | Cc1cccc(OC(c2ccc(C(F)(F)F)cc2)C2CCN(C(C)CCNC(=O)c3c(Cl)cncc3Cl)CC2)n1 (mixture of isomers) | 6700 nM | – |
| > 240 nM | – | CC(CCNC(=O)c1c(Cl)cncc1Cl)N1CCC(C(Oc2ccncc2)c2ccc(Br)cc2)CC1 (mixture of isomers) | 31200 nM | – |
| > 6810 nM | 1760 nM | CCO/N=C(/c1ccc(Br)cc1)C1CCN(C(C)(C)CCNC(=O)c2c(Cl)cncc2Cl)CC1 | 34000 nM | – |
| > 6260 nM | – | COC(=O)c1cccc(OC(c2ccc(C(F)(F)F)cc2)C2CCN(C(C)CCNC(=O)c3c(Cl)cncc3Cl)CC2)c1 (mixture of isomers) | 15200 nM | – |
| > 36500 nM | 5620 nM | CCO/N=C(/c1ccc(Br)cc1)C1CCN(C(C)CCN(C)C(=O)c2c(C)cc[n+]([O-])c2C)CC1 (configuration not stated) | > 183000 nM | – |
| 3300 nM | 970 nM | CC(CCNC(=O)c1c(Cl)cncc1Cl)N1CCC(C(Oc2cccnc2)c2ccc(Br)cc2)CC1 (mixture of isomers) | 32500 nM | – |
| > 1290 nM | 3800 nM | Cc1ccc(OC(c2ccc(Br)cc2)C2CCN(C(C)CCNC(=O)c3c(Cl)cncc3Cl)CC2)nc1 (mixture of isomers) | 32200 nM | – |
| 340 nM | 190 nM | Cc1cccnc1OC(c1ccc(Br)cc1)C1CCN(C(C)CCNC(=O)c2c(Cl)cncc2Cl)CC1 (mixture of isomers) | 32100 nM | – |
| 1550 nM | 220 nM | Cc1cccc(OC(c2ccc(Br)cc2)C2CCN(C(C)CCNC(=O)c3c(Cl)cncc3Cl)CC2)n1 (mixture of isomers) | 6500 nM | – |
| > 36400 nM | 17000 nM | CCO/N=C(/c1ccc(Br)cc1)C1CCN(C(C)CNC(=O)c2c(C)cc[n+]([O-])c2C)CC1 (configuration not stated) | 182000 nM | – |
| 60 nM | 130 nM | CC(CCNC(=O)c1c(Cl)cncc1Cl)N1CCC(C(Oc2cccc(C(F)(F)F)n2)c2ccc(C(F)(F)F)cc2)CC1 (mixture of isomers) | 13500 nM | – |
| 230 nM | 40 nM | CC(CCNC(=O)c1c(Cl)cncc1Cl)N1CCC(C(Oc2cccc(F)c2)c2ccc(C(F)(F)F)cc2)CC1 (mixture of isomers) | 5400 nM | – |
| 2870 nM | 100 nM | CC(CCNC(=O)c1c(Cl)cncc1Cl)N1CCC(C(Oc2ccccc2C#N)c2ccc(C(F)(F)F)cc2)CC1 (mixture of isomers) | 17000 nM | – |
| 9 nM | 20 nM | CC(CCNC(=O)c1c(Cl)cncc1Cl)N1CCC(C(Oc2cccc(Cl)n2)c2ccc(C(F)(F)F)cc2)CC1 (mixture of isomers) | > 32500 nM | clearance [4]: 31.7 mL/min/kg; half-life [5]: 7.7 h; half-life [6]: 1.2 h; Vd [7]: 15.2 L/kg; clearance [8]: 142 mL/min/kg; Cmax [9]: 200 nM; Cmax [10]: 100 nM; Vd [11]: 20.8 L/kg; AUC(0-inf) [12]: 2.4 µM·h; bioavailability [13]: 6%; AUC(0-inf) [14]: 0.5 µM·h; bioavailability [15]: 20% |
| > 39600 nM | 3390 nM | CC(CCNC(=O)c1c(Cl)cncc1Cl)N1CCC(C(O)c2ccc(Br)cc2)CC1 (configuration not stated) | 198000 nM | – |
| > 1300 nM | – | COc1cccc(OC(c2ccc(C(F)(F)F)cc2)C2CCN(C(C)CCNC(=O)c3c(Cl)cncc3Cl)CC2)n1 (mixture of isomers) | 32700 nM | – |
| 2950 nM | 60 nM | Cc1cccnc1OC(c1ccc(C(F)(F)F)cc1)C1CCN(C(C)CCNC(=O)c2c(Cl)cncc2Cl)CC1 (mixture of isomers) | 33000 nM | – |
| > 1300 nM | 130 nM | CC(CCNC(=O)c1c(Cl)cncc1Cl)N1CCC(C(Oc2ccccc2)c2ccc(Br)cc2)CC1 (configuration not stated) | 31700 nM | – |

| IC50 [1] | IC50 [3] | SMILES | CC50 [2] | further results |
| --- | --- | --- | --- | --- |
| 32600 nM | – | CC(CCNC(=O)c1c(Cl)cncc1Cl)N1CCC(C(=O)c2ccc(Br)cc2)CC1 (configuration not stated) | 189000 nM | – |
| 100 nM | – | CC(CCNC(=O)c1c(Cl)cncc1Cl)N1CCC(C(Oc2ccccc2C(F)(F)F)c2ccc(C(F)(F)F)cc2)CC1 (mixture of isomers) | 12500 nM | – |
| 2540 nM | 290 nM | CCO/N=C(/c1ccc(Br)cc1)C1CCN(C(C)CCNC(=O)c2c(C)cc[n+]([O-])c2C)CC1 (configuration not stated) | > 178000 nM | – |
| 70 nM | 60 nM | CC(CCNC(=O)c1c(Cl)cncc1Cl)N1CCC(C(Oc2cccc(Cl)c2)c2ccc(C(F)(F)F)cc2)CC1 (mixture of isomers) | 8100 nM | – |
| 220 nM | 40 nM | CC(CCNC(=O)c1c(Cl)cncc1Cl)N1CCC(C2(c3ccc(C(F)(F)F)cc3)Cc3ccccc3O2)CC1 (configuration not stated) | 33800 nM | – |
| 4 nM | 10 nM | CC(CCNC(=O)c1c(Cl)cncc1Cl)N1CCC(C(Oc2cccc(Cl)n2)c2ccc(S(C)(=O)=O)cc2)CC1 (mixture of isomers) | > 29500 nM | – |
| 10 nM | 30 nM | CC(CCNC(=O)c1c(Cl)cncc1Cl)N1CCC(C2(c3ccc(C(F)(F)F)cc3)Oc3ccccc3O2)CC1 (configuration not stated) | 7800 nM | – |
| > 1500 nM | 180 nM | CCO/N=C(/c1ccc(Br)cc1)C1CCN(CCCNC(=O)c2c(C)cc[n+]([O-])c2C)CC1 | 7500 nM | – |
| 9 nM | 40 nM | CC(CCNC(=O)c1c(Cl)cncc1Cl)N1CCC(C(Oc2cccc(C#N)n2)c2ccc(C(F)(F)F)cc2)CC1 (mixture of isomers) | 15700 nM | – |
| > 28700 nM | – | CC(CCNC(=O)c1c(Cl)cncc1Cl)N1CCC(C(Oc2cccc(C(=O)O)n2)c2ccc(C(F)(F)F)cc2)CC1 (mixture of isomers) | 28700 nM | – |
| 1270 nM | 50 nM | CC(CCNC(=O)c1c(Cl)cncc1Cl)N1CCC(C(Oc2ccccc2)c2ccc(C(F)(F)F)cc2)CC1 (mixture of isomers) | 6800 nM | – |
| 3760 nM | 140 nM | CC(CCNC(=O)c1c(Cl)cncc1Cl)N1CCC(C(Oc2ccccn2)c2ccc(Br)cc2)CC1 (mixture of isomers) | 33700 nM | – |
| 80 nM | 140 nM | CC(CCNC(=O)c1c(Cl)cncc1Cl)N1CCC(C(Oc2ncccc2Cl)c2ccc(C(F)(F)F)cc2)CC1 (mixture of isomers) | 16700 nM | – |
| 520 nM | 1050 nM | COC(=O)c1cccc(OC(c2ccc(C(F)(F)F)cc2)C2CCN(C(C)CCNC(=O)c3c(Cl)cncc3Cl)CC2)n1 (mixture of isomers) | 14600 nM | – |
| > 6600 nM | 21400 nM | CCO/N=C(/c1ccc(Br)cc1)C1CCN(C2(CCNC(=O)c3c(Cl)cncc3Cl)CC2)CC1 | 33000 nM | – |
| > 7400 nM | 12300 nM | CC(CCNC(=O)c1c(Cl)cncc1Cl)N1CCC(C2=NOCc3cc(Br)ccc32)CC1 (configuration not stated) | 185000 nM | – |
| > 1230 nM | – | CC(CCNC(=O)c1c(Cl)cncc1Cl)N1CCC(C(Oc2ccc(C(F)(F)F)cc2)c2ccc(C(F)(F)F)cc2)CC1 (mixture of isomers) | 3100 nM | – |
| 160 nM | 40 nM | CCO/N=C(/c1ccc(Br)cc1)C1CCN(C2(C)CCN(C(=O)c3c(C)cc[n+]([O-])c3C)CC2)CC1 [SCHERING C] | > 1600 nM | half-life [6]: 2.7 h; Vd [7]: 7.2 L/kg; clearance [8]: 31.7 mL/min/kg; Cmax [9]: 1600 nM; AUC(0-inf) [12]: 4.3 µM·h; bioavailability [15]: 48% |
| 480 nM | 50 nM | CC(CCNC(=O)c1c(Cl)cncc1Cl)N1CCC(C(Oc2cccc(C#N)c2)c2ccc(C(F)(F)F)cc2)CC1 (mixture of isomers) | 15700 nM | – |
| 130 nM | 30 nM | CC(CCNC(=O)c1c(Cl)cncc1Cl)N1CCC(C(Oc2ccccn2)c2ccc(C(F)(F)F)cc2)CC1 (mixture of isomers) | 34100 nM | – |
| 430 nM | 70 nM | CC(CCNC(=O)c1c(Cl)cncc1Cl)N1CCC(C(Oc2cc(Cl)ccn2)c2ccc(C(F)(F)F)cc2)CC1 (mixture of isomers) | 4260 nM | – |
| 1960 nM | 140 nM | Cc1ccnc(OC(c2ccc(Br)cc2)C2CCN(C(C)CCNC(=O)c3c(Cl)cncc3Cl)CC2)c1 (mixture of isomers) | 32500 nM | – |
| > 1270 nM | 120 nM | CC(CCNC(=O)c1c(Cl)cncc1Cl)N1CCC(C(Oc2ccccc2Cl)c2ccc(C(F)(F)F)cc2)CC1 (mixture of isomers) | 4400 nM | – |

| SMILES | IC50 [1] | IC50 [3] | CC50 [2] | further results |
| --- | --- | --- | --- | --- |
| CC(CCNC(=O)c1c(Cl)cncc1Cl)N1CCC(N(Cc2ccccc2)c2ccc(Br)cc2)CC1 (configuration not stated) | 220 nM | 30 nM | 4280 nM | – |
